Test results: US9364537B2, “Transition metal porphyrin complexes and methods of treatment using same” (UNIVERSITY OF DAYTON, priority 2014, dated 2016)

Key:
[1] = system: Pseudomonas aeruginosa planktonic cells; experiment: killing of planktonic cells in the absence of light, viable plate counts; type: cell-based; details: 37° C.
Procedure: ZnPFPTMP was added to cell suspensions at the concentrations shown in FIG. 5 (0 to 100 μM) and incubated at 37° C. in the absence of light. […]

[2] = system: Pseudomonas aeruginosa biofilm associated cells; experiment: effect on biofilms in the dark; type: cell-based
Staphylococcus aureus = experiment: killing of bacteria in the absence of light, plated to determine viability; type: cell-based
Text: Additionally, the ability of ZnPFPTMP to affect killing of bacteria in the absence of light was further tested against the Gram-positive pathogenic bacterium Staphylococcus aureus. This bacterium was chose to evidence the ability of the porphyrins of general formula (I) to treat/kill methicillin-resistant Staphylococcus aureus (MRSA) without exposing the scientists to MRSA directly. Moreover, it is believed that the mechanism used by the porphyrins of general formula (I) is unlikely to involve the methicillin resistance mechanism. S. aureus cells grown in LB medium were washed and re-suspended on 0.2% peptone and exposed to either 1.5 μM or 3.0 μM Zeke in sterile water. Cell suspensions were sampled every 30 minutes for 3 hours and plated to determine viability. […] At 1.5 μM Zeke's complete elimination of viable cells of S. aureus took only two hours.

calf thymus CT-DNA = experiment: DNA titration by absorption spectra; type: binding; details: pH 7.2 buffer, ionic strength 0.1 M
Procedure: A sample of ZnPFPTMP from Part C was tested by various methods and techniques to determine how this compound may be utilized. In one test ZnPFPTMP was titrated into a DNA sample to determine ZnPFPTMP's affinity for binding to DNA. This test was conducted by measuring the absorption spectra of pH 7.2 buffer solutions (ionic strength=0.1 M) of ZnPFPTMP in the presence of increasing amounts of calf thymus CT-DNA.

[3] = system: circular plasmid DNA (pUC18); experiment: photocleavage of plasmid DNA in the presence of oxygen, gel electrophoresis; type: biochemical; details: 50:1 base pair to complex ratio
Procedure: To appreciate the significance of the increased absorption of ZnPFPTMP in the PDT window, comparative photocleavage studies of plasmid DNA under normal conditions (i.e., in the presence of oxygen) were conducted for ZnPFPTMP and its free-base porphyrin. […] In FIG. 3, gel electrophoresis of circular plasmid DNA (pUC18) in the absence (lane 1) and presence (lanes 2-10) of unmetallated porphyrin (A) and ZnPFPTMP (B) at a 50:1 base pair to complex ratio are shown. Samples were irradiated with a 300 W mercury arc lamp equipped with a long pass filter, cutting off wavelengths below 550 nm, and were taken at 2 minute intervals.
ZnPFPTMP is very reactive at such low energy wavelengths of light.

[4] = system: circular plasmid DNA (pUC18); experiment: photocleavage of plasmid DNA in the absence of oxygen, gel electrophoresis; type: biochemical; details: 10:1 base pair to complex ratio, wavelengths above 420 nm
Procedure: Referring now to FIG. 4, photocleavage studies based on a 10 to 1 base pairs to ZnPFPTMP was irradiated with a 420 nm filter and samples were taken at 10 minute intervals. In FIG. 3, gel electrophoresis of circular plasmid DNA (pUC18) in the absence (lane 1) and presence (lanes 2-10) of ZnPFPTMP at a 10:1 base pair to complex ratio is shown. Samples were irradiated with a 300 W mercury arc lamp equipped with a long pass filter, cutting off wavelengths below 420 nm in the absence of oxygen, and were taken at 10 minute intervals. Accordingly, ZnPFPTMP can be effective under hypoxic conditions.

## meso-5,10,15-tris(N-methyl-4-pyridyl)-20-(pentafluorophenyl)porphyrinatozinc(II), tris-p-toluene sulfonate [ZnPFPTMP]
[1]; 2 hours
  killing at two hours: substantial killing
[1]; 7 hours, no survivors
  MLC (minimum lethal concentration): 25 µM
[2]; added to cell suspensions incubated in the dark
  biofilm formation: Biofilms were prevented
[2]; preformed biofilms exposed in the dark (data not shown)
  log reduction in preformed biofilms: 2.7 log
Staphylococcus aureus; 1.5 μM
  time to complete elimination of viable cells: two
Staphylococcus aureus; 3.0 μM, after 30 min
  log reduction in viable cells: 5.5 log
Staphylococcus aureus; 3.0 μM, after 60 min
  viable cells remaining: no viable cells remained
Calf thymus CT-DNA
  binding constants to DNA: greater than 10^6
[3]; after 2 minutes versus free-base porphyrin after 20 minutes, above 550 nm
  band intensity compared to free-base porphyrin: more intense bands
[3]; after two minutes, wavelengths above 550 nm, oxygen present
  photonicking of plasmid DNA: effective compete photonicking
[4]
  photonicking of DNA in the absence of oxygen: effective at photonicking DNA
